Measurements as given in publication PMC12203862, “BroadAMP-GPT: AI-Driven generation of broad-spectrum antimicrobial peptides for combating multidrug-resistant ESKAPE pathogens” (Gut Microbes, 2025).
Values after ≈ are worked out from the molar mass of the structure shown. Where two headings read alike, the source gives them in different places.

How the values were obtained:
[1] = tested on: S. enteritis S1; assay: organism not typed; assay type: cell-based; conditions: Table 1; S. enteritis S1; broth microdilution; read-out: MIC
Experimental: (§1) Bacterial strains and growth conditions: All Gram-negative and Gram-positive bacterial strains (Supplementary Table S8) were cultured in Luria-Bertani (LB) or trypticase soy broth (TSB) agar plates, respectively, and incubated overnight at 37 °C unless specifically indicated. A single colony of the tested bacterial strains was inoculated into medium broth with shaking at 220 rpm for further experiments.
(§2) Minimal inhibitory concentrations: Antimicrobial susceptibility testing was performed by broth microdilution method for AMPs against Gram-positive and Gram-negative pathogens above mentioned, following the methods of document CLSI M100-ED34.[43] The MICs were defined as the lowest concentrations that inhibit visible growth of the tested bacteria. E. coli ATCC 25,922 and S. aureus ATCC 29,213 were served as quality controls.

[2] = tested on: K. pneumoniae 9-1; assay: microbe, parasite or virus in culture; assay type: cell-based; conditions: Klebsiella pneumoniae, 91; Table 1; K. pneumoniae 9-1; broth microdilution; read-out: MIC
Experimental: as §1, §2

[3] = tested on: A. baumannii 7979; assay: microbe, parasite or virus in culture; assay type: cell-based; conditions: Acinetobacter baumannii; Table 1; A. baumannii 7979; broth microdilution; read-out: MIC
Experimental: as §1, §2

[4] = tested on: P. aeruginosa PA14; assay: microbe, parasite or virus in culture; assay type: cell-based; conditions: Pseudomonas aeruginosa; Table 1; P. aeruginosa PA14; broth microdilution; read-out: MIC
Experimental: as §1, §2

[5] = tested on: P. aeruginosa PAO1; assay: microbe, parasite or virus in culture; assay type: cell-based; conditions: Pseudomonas aeruginosa; Table 1; P. aeruginosa PAO1; broth microdilution; read-out: MIC
Experimental: as §1, §2

[6] = tested on: E. coli ATCC 25922; assay: microbe, parasite or virus in culture; assay type: cell-based; conditions: Escherichia coli, ATCC25922; Table 1; E. coli ATCC 25922; broth microdilution; read-out: MIC
Experimental: as §1, §2

[7] = tested on: A. baumannii AB11; assay: microbe, parasite or virus in culture; assay type: cell-based; conditions: Acinetobacter baumannii; Table 1; A. baumannii AB11; broth microdilution; read-out: MIC
Experimental: as §1, §2

[8] = tested on: S. suis P1/7; assay: microbe, parasite or virus in culture; conditions: Streptococcus suis, P1/7
Experimental: as §1
as §2, with “bacteria.” for “bacteria. E. coli ATCC 25,922 and S. aureus ATCC 29,213 were served as quality controls.”

[9] = tested on: S. aureus ATCC 29213; assay: microbe, parasite or virus in culture; assay type: cell-based; conditions: Staphylococcus aureus, ATCC29213
[10] = tested on: E. faecalis JH2-2; assay: microbe, parasite or virus in culture; assay type: cell-based; conditions: Enterococcus faecalis, JH22; Table 1; E. faecalis JH2-2; broth microdilution; read-out: MIC
Experimental: as §1, §2

[11] = tested on: S. pyogenes DL02; assay: microbe, parasite or virus in culture; assay type: cell-based; conditions: Streptococcus pyogenes; Table 1; S. pyogenes DL02; ermB; broth microdilution; read-out: MIC
Experimental: as §1, §2

[12] = tested on: S. aureus YZSA-24; assay: microbe, parasite or virus in culture; assay type: cell-based; conditions: Staphylococcus aureus, YZSA24; Table 1; S. aureus YZSA-24; ermC, mecA; broth microdilution; read-out: MIC
Experimental: as §1, §2

[13] = tested on: S. aureus YZSA-21; assay: microbe, parasite or virus in culture; assay type: cell-based; conditions: Staphylococcus aureus, YZSA21; Table 1; S. aureus YZSA-21; ermC; broth microdilution; read-out: MIC
Experimental: as §1, §2

[14] = tested on: S. aureus M147-2; assay: microbe, parasite or virus in culture; assay type: cell-based; conditions: Staphylococcus aureus, M1472; Table 1; S. aureus M147-2; ermB, tetL, cfr; broth microdilution; read-out: MIC
Experimental: as §1, §2

[15] = tested on: S. suis SH0918; assay: microbe, parasite or virus in culture; assay type: cell-based; conditions: Streptococcus suis; Table 1; S. suis SH0918; ermB, tetO, optrA; broth microdilution; read-out: MIC
Experimental: as §1, §2

[16] = tested on: E. faecium MC38; assay: microbe, parasite or virus in culture; assay type: cell-based; conditions: Enterococcus faecium; Table 1; E. faecium MC38; ermB, optrA; broth microdilution; read-out: MIC
Experimental: as §1, §2

[17] = tested on: E. faecium HFY01; assay: microbe, parasite or virus in culture; assay type: cell-based; conditions: Enterococcus faecium; Table 1; E. faecium HFY01; broth microdilution; read-out: MIC
Experimental: as §1, §2

[18] = tested on: S. agalactiae DL03; assay: microbe, parasite or virus in culture; assay type: cell-based; conditions: Streptococcus agalactiae; Table 1; S. agalactiae DL03; ermB; broth microdilution; read-out: MIC
Experimental: as §1, §2

[19] = tested on: E. faecalis J2; assay: microbe, parasite or virus in culture; assay type: cell-based; conditions: Enterococcus faecalis; Table 1; E. faecalis J2; ermB, optrA; broth microdilution; read-out: MIC
Experimental: as §1, §2

[20] = tested on: S. aureus M92-1; assay: microbe, parasite or virus in culture; assay type: cell-based; conditions: Staphylococcus aureus, M921; Table 1; S. aureus M92-1; ermB, tetL, optrA; broth microdilution; read-out: MIC
Experimental: as §1, §2

[21] = tested on: S. aureus YZSA-15; assay: microbe, parasite or virus in culture; assay type: cell-based; conditions: Staphylococcus aureus, YZSA15; Table 1; S. aureus YZSA-15; ermC, vanB; broth microdilution; read-out: MIC
Experimental: as §1, §2

[22] = tested on: E. faecalis SF23-1; assay: microbe, parasite or virus in culture; assay type: cell-based; conditions: Enterococcus faecalis, SF231; Table 1; E. faecalis SF23-1; ermB, tetL, cfr; broth microdilution; read-out: MIC
Experimental: as §1, §2

[23] = tested on: E. faecalis ES01; assay: microbe, parasite or virus in culture; assay type: cell-based; conditions: Enterococcus faecalis; Table 1; E. faecalis ES01; ermB, vanB; broth microdilution; read-out: MIC
Experimental: as §1, §2

[24] = tested on: E. faecium QF31; assay: microbe, parasite or virus in culture; assay type: cell-based; conditions: Enterococcus faecium; Table 1; E. faecium QF31; ermB, cfr; broth microdilution; read-out: MIC
Experimental: as §1, §2

[25] = Table 1, S. aureus ATCC 29213, broth microdilution, CLSI M100-ED34, read-out: MIC

Compound	MIC [1] [µg/mL]	MIC [2] [µg/mL]	MIC [3] [µg/mL]	MIC [4] [µg/mL]	MIC [5] [µg/mL]	MIC [6] [µg/mL]	MIC [7] [µg/mL]	MIC [8] [µg/mL]	MIC [10] [µg/mL]	MIC [11] [µg/mL]	MIC [12] [µg/mL]	MIC [13] [µg/mL]	MIC [14] [µg/mL]	MIC [15] [µg/mL]	MIC [16] [µg/mL]	MIC [17] [µg/mL]	MIC [18] [µg/mL]	MIC [19] [µg/mL]	MIC [20] [µg/mL]	MIC [21] [µg/mL]	other results
C[C@@H](O)[C@H]1C(=O)N2C(C(=O)O)=C(S[C@@H]3CN[C@H](C(=O)N(C)C)C3)[C@H](C)[C@H]12 [MEM, Meropenem]	0.25 (≈ 0.652 µM)	4 (≈ 10.4 µM)	> 64	0.5 (≈ 1.3 µM)	0.5 (≈ 1.3 µM)	0.25 (≈ 0.652 µM)	< 0.06	–	–	–	–	–	–	–	–	–	–	–	–	–	–
C[C@H]1c2cccc(O)c2C(=O)C2=C(O)[C@]3(O)C(=O)C(C(N)=O)=C(O)[C@@H](N(C)C)[C@@H]3[C@@H](O)[C@@H]21 [DOX, doxycycline]	> 64	> 64	> 64	16 (≈ 36 µM)	8 (≈ 18 µM)	1 (≈ 2.25 µM)	< 0.06	0.125 (≈ 0.281 µM)	4 (≈ 9 µM)	2 (≈ 4.5 µM)	0.5 (≈ 1.13 µM)	0.25 (≈ 0.563 µM)	16 (≈ 36 µM)	16 (≈ 36 µM)	16 (≈ 36 µM)	< 0.06	< 0.06	16 (≈ 36 µM)	16 (≈ 36 µM)	0.25 (≈ 0.563 µM)	MIC [9, 25]: 0.25 µg/mL (≈ 0.563 µM); MIC [22]: 16 µg/mL (≈ 36 µM); MIC [23]: 0.5 µg/mL (≈ 1.13 µM); MIC [24]: 16 µg/mL (≈ 36 µM)
CNC(C)C1CCC(N)C(OC2C(N)CC(N)C(OC3OCC(C)(O)C(NC)C3O)C2O)O1 (centres unmarked) [GEN, gentamicin]	0.25 (≈ 0.523 µM)	> 64	> 64	< 0.06	0.125 (≈ 0.262 µM)	4 (≈ 8.38 µM)	< 0.06	4 (≈ 8.38 µM)	4 (≈ 8.38 µM)	1 (≈ 2.09 µM)	1 (≈ 2.09 µM)	0.5 (≈ 1.05 µM)	> 64	16 (≈ 33.5 µM)	> 64	< 0.06	16 (≈ 33.5 µM)	> 64	> 64	0.5 (≈ 1.05 µM)	MIC [9, 25]: 1 µg/mL (≈ 2.09 µM); MIC [22]: 8 µg/mL (≈ 16.8 µM); MIC [23]: > 64 µg/mL; MIC [24]: > 64 µg/mL
CCC[C@@H]1C[C@@H](C(=O)N[C@@H]([C@H]2O[C@H](SC)[C@H](O)[C@@H](O)[C@H]2O)[C@H](C)Cl)N(C)C1 [CLI, clindamycin]	> 64	> 64	> 64	> 64	> 64	> 64	0.5 (≈ 1.18 µM)	0.125 (≈ 0.294 µM)	0.5 (≈ 1.18 µM)	> 64	> 64	> 64	> 64	> 64	> 64	0.5 (≈ 1.18 µM)	> 64	> 64	> 64	> 64	MIC [9]: 0.125 µg/mL (≈ 0.294 µM); MIC [22]: > 64 µg/mL; MIC [23]: > 64 µg/mL; MIC [24]: > 64 µg/mL
C[C@H]1[C@H](NC(=O)/C(=N\OC(C)(C)C(=O)O)c2csc(N)n2)C(=O)N1S(=O)(=O)O [ATM, Aztreonam]	2 (≈ 4.59 µM)	> 64	> 64	4 (≈ 9.19 µM)	2 (≈ 4.59 µM)	0.25 (≈ 0.574 µM)	> 64	–	–	–	–	–	–	–	–	–	–	–	–	–	–
